One may read the GI50 as the concentration giving 50% growth inhibition.

Assay type in all cases: functional
Assay [1] in a line: (§1) Cytotoxicity against human U937 cells assessed as cell viability after 24 hrs by MTT assay. The settings on record: U-937, 24 h. For orientation: Tetrazolium assays rely on reduction of a dye to a coloured formazan, in cell work by metabolically active cells.
Assay [2] is described as follows: (§2) Cytotoxicity against human A375P cells assessed as cell viability after 24 hrs by MTT assay.
The subject of a further assay is A375P. The description is as §2.
The test system of a further assay is U-937. Described as §1.

Calls of active or inactive are those of the source. The rule behind the calls is not given here. Where only a bound is given, the exact number is not on record here.

As to `CNC(=O)c1cc(Oc2ccc(NC(=O)Nc3ccc(Cl)c(C(F)(F)F)c3)cc2)ccn1` [SORAFENIB], the GI50 in assay [1] stood at 2.74 µM; in assay [2], 3.4 µM.
With `Cc1cc(C)cc(C(=O)Nc2cccc(Cc3nccn3-c3ccnc(NC[C@H](C)O)n3)c2)c1`, in assay [1], the concentration for 50% growth inhibition (GI50) was found to be 16.8 µM. In addition, the GI50 result in the assay with A375P was “inactive”.
On to `C[C@H](O)CNc1nccc(-n2ccnc2C(=O)c2cccc(NC(=O)Nc3ccc(Cl)c(Cl)c3)c2)n1`, for which the 50% growth inhibitory concentration (GI50) in assay [1] was 14.7 µM; in assay [2] it was > 30 µM.
Consider `C[C@H](O)CNc1nccc(-n2ccnc2Cc2cccc(NC(=O)c3ccc(N4CCOCC4)c(C(F)(F)F)c3)c2)n1`, for which the GI50 entry in the assay with U-937 and in the assay on A375P was “inactive” in each case.
Consider `C[C@H](O)CNc1nccc(-n2ccnc2C(=O)c2ccc(NC(=O)c3ccc(C(F)(F)F)c(N4CCOCC4)c3)cc2)n1`, for which the GI50 entry in the assay on U-937 was “inactive”. Moreover, the GI50 in assay [2] amounted to 7.07 µM.
On to `CC(=O)N1CCC(C(=O)Nc2cccc(Cc3nccn3-c3ccnc(NC[C@H](C)O)n3)c2)CC1`, for which the GI50 result in the assay on U-937 and with A375P was “inactive” in each case.
Consider `C[C@H](O)CNc1nccc(-n2ccnc2Cc2cccc(NC(=O)c3cc(N4CCN(C)CC4)cc(C(F)(F)F)c3)c2)n1`, for which the 50% growth inhibitory concentration (GI50) in assay [1] is > 30 µM; in assay [2], 12.3 µM.
The like results for `C[C@H](O)CNc1nccc(-n2ccnc2Cc2cccc(NC(=O)c3ccccc3F)c2)n1` were, in that order, > 30 µM and 7.45 µM.
On the same counts, the results for `CCN1CCN(Cc2ccc(NC(=O)Nc3cccc(Cc4nccn4-c4ccnc(NC[C@H](C)O)n4)c3)cc2C(F)(F)F)CC1` are > 30 µM and > 30 µM.
The like results for `C[C@H](O)CNc1nccc(-n2ccnc2C(=O)c2cccc(NC(=O)c3ccc(Cl)cc3)c2)n1` were, in that order, > 30 µM and > 30 µM.
For `C[C@H](O)CNc1nccc(-n2ccnc2C(=O)c2cccc(NC(=O)c3cc(N4CCOCC4)cc(C(F)(F)F)c3)c2)n1`, the 50% growth inhibitory concentration (GI50) in assay [1] amounted to 4.9 µM. Also, in the assay on A375P, the GI50 entry was “inactive”.
`C[C@H](O)CNc1nccc(-n2ccnc2Cc2cccc(NC(=O)c3cc(N4CCOCC4)cc(C(F)(F)F)c3)c2)n1`: the results for the 50% growth inhibitory concentration (GI50) in assay [1] and in assay [2] were 9.7 µM and 6.6 µM, respectively.
Regarding `C[C@H](O)CNc1nccc(-n2ccnc2Cc2cccc(NC(=O)c3ccccc3Sc3ccccc3C#N)c2)n1`, the GI50 in assay [1] worked out at 10 µM. Also, the GI50 result with A375P was “inactive”.
Regarding `C[C@H](O)CNc1nccc(-n2ccnc2Cc2cccc(NC(=O)c3ccncc3)c2)n1`, the GI50 result with U-937 is “inactive”. In addition, the GI50 in assay [2] turned out to be 8.92 µM.
`C[C@H](O)CNc1nccc(-n2ccnc2Cc2cccc(NC(=O)c3ccc4ccccc4n3)c2)n1`: the 50% growth inhibitory concentration (GI50) in assay [1] was 23.8 µM. Besides, the GI50 result with A375P is “inactive”.
On to `C[C@H](O)CNc1nccc(-n2ccnc2C(=O)c2ccc(NC(=O)c3ccc(Cl)c(C(F)(F)F)c3)cc2)n1`, for which the GI50 in assay [1] and in assay [2] was > 30 µM each time.
In the case of `C[C@H](O)CNc1nccc(-n2ccnc2C(=O)c2ccc(NC(=O)c3ccc(Cl)cc3)cc2)n1`, the concentration for 50% growth inhibition (GI50) in assay [1] and in assay [2] was > 30 µM in each case.
In the case of `C[C@H](O)CNc1nccc(-n2ccnc2Cc2cccc(NC(=O)c3cnn(-c4ccccc4)c3C(F)(F)F)c2)n1`, the GI50 in assay [1] came out at 25.8 µM; in assay [2], 6.39 µM.
The like results for `C[C@H](O)CNc1nccc(-n2ccnc2Cc2cccc(NC(=O)c3ccc(Cl)c(C(F)(F)F)c3)c2)n1` were, in that order, 6.83 µM and 3.3 µM.
On the same counts, the results for `C[C@H](O)CNc1nccc(-n2ccnc2C(=O)c2ccc(NC(=O)Nc3ccc(Cl)c(Cl)c3)cc2)n1` are 11.6 µM and > 30 µM.
On the same counts, the results for `C[C@H](O)CNc1nccc(-n2ccnc2C(=O)c2ccc(NC(=O)c3cccc(Cl)c3)cc2)n1` are > 30 µM and > 30 µM.
As to `C[C@H](O)CNc1nccc(-n2ccnc2Cc2cccc(NC(=O)c3ccccc3-c3ccccc3)c2)n1`, the GI50 result in the assay with U-937 and with A375P was “inactive” each time.
As to `C[C@H](O)CNc1nccc(-n2ccnc2Cc2cccc(NC(=O)Cc3ccc(-c4ccccc4)cc3)c2)n1`, the GI50 in assay [1] stood at 10 µM; in assay [2], 11.2 µM.
`C[C@H](O)CNc1nccc(-n2ccnc2C(=O)c2cccc(NC(=O)c3cc(N4CCN(C)CC4)cc(C(F)(F)F)c3)c2)n1`: the GI50 entry with U-937 is “inactive”. For the same compound, in assay [2], the GI50 stood at 27.8 µM.
`C[C@H](O)CNc1nccc(-n2ccnc2C(=O)c2ccc(NC(=O)Nc3ccc(Cl)c(C(F)(F)F)c3)cc2)n1`: the concentration for 50% growth inhibition (GI50) was 7.45 µM in assay [1] and > 30 µM in assay [2].
For `C[C@H](O)CNc1nccc(-n2ccnc2C(=O)c2cccc(NC(=O)c3cccc(Cl)c3)c2)n1`, the concentration for 50% growth inhibition (GI50) in assay [1] and in assay [2] was > 30 µM in each case.
As for `C[C@H](O)CNc1nccc(-n2ccnc2C(=O)c2ccc(NC(=O)c3cc(N4CCN(C)CC4)cc(C(F)(F)F)c3)cc2)n1`, the GI50 result in the assay with U-937 is “inactive”. Moreover, the GI50 in assay [2] is 5.92 µM.
As to `C[C@H](O)CNc1nccc(-n2ccnc2Cc2cccc(NC(=O)Nc3ccc(Cl)c(Cl)c3)c2)n1`, the GI50 in assay [1] worked out at 1.73 µM; in assay [2] it was 19.2 µM.
The like results for `C[C@H](O)CNc1nccc(-n2ccnc2Cc2cccc(NC(=O)C3Cc4ccccc4N3)c2)n1` (stereo partly drawn) were, in that order, 18.5 µM and > 30 µM.
Take `Cc1c(C)c2c(c(C)c1O)CC[C@](C)(C(=O)Nc1cccc(Cc3nccn3-c3ccnc(NC[C@H](C)O)n3)c1)O2`: the GI50 in assay [1] is 23.6 µM. Further, in the assay with A375P, the GI50 result was “inactive”.
`C[C@H](O)CNc1nccc(-n2ccnc2Cc2cccc(NC(=O)C(c3ccc(Cl)cc3)c3ccc(Cl)cc3)c2)n1`: the GI50 worked out at 3.24 µM in assay [1] and 3.97 µM in assay [2].
The like results for `C[C@H](O)CNc1nccc(-n2ccnc2C(=O)c2cccc(NC(=O)Nc3ccc(Cl)cc3)c2)n1` were, in that order, > 30 µM and > 30 µM.
The like results for `C[C@H](O)CNc1nccc(-n2ccnc2C(=O)c2cccc(NC(=O)c3cccc(C(F)(F)F)c3)c2)n1` were, in that order, 3.78 µM and > 30 µM.
On the same counts, the results for `C[C@H](O)CNc1nccc(-n2ccnc2Cc2cccc(NC(=O)c3ccc(Cl)cc3)c2)n1` are > 30 µM and 10.2 µM.
On to `C[C@H](O)CNc1nccc(-n2ccnc2Cc2cccc(NC(=O)Nc3cccc(Cl)c3)c2)n1`, for which the GI50 in assay [1] is 15.3 µM; in assay [2], 26.2 µM.
As to `C[C@H](O)CNc1nccc(-n2ccnc2Cc2cccc(NC(=O)c3cnccn3)c2)n1`, in assay [1], the GI50 is > 30 µM. For the same compound, the GI50 result in the assay on A375P is “inactive”.
With `C[C@H](O)CNc1nccc(-n2ccnc2Cc2cccc(NC(=O)c3ccc(-c4ccccc4)cc3)c2)n1`, the concentration for 50% growth inhibition (GI50) in assay [1] came out at 1.68 µM; in assay [2], 0.6 µM.
The like results for `C[C@H](O)CNc1nccc(-n2ccnc2Cc2cccc(NC(=O)Cc3c[nH]c4ccccc34)c2)n1` were, in that order, > 30 µM and > 30 µM.
`COc1ccc(-c2ccc(C(=O)Nc3cccc(C(=O)c4nccn4-c4ccnc(NC[C@H](C)O)n4)c3)o2)cc1`: the figures for the 50% growth inhibitory concentration (GI50) in assay [1] and in assay [2] were 2.55 µM and 9.39 µM, respectively.
